In US20040242565A1, “Medicinal composition for prevention of or treatment for cerebrovascular disorder and cardiopathy” (priority 2001, published 2004):
Like-named read-outs stand apart in the source and are kept apart here.

Experiments:
Type in all cases: in vivo
[1] = system: Dog Delayed Cerebral Vasospasm Model; assay: Effect on dog delayed cerebral vasospasm model (basilar artery diameter by angiography); settings: seventh day, separate administration
Method: An adult mongrel dog was anesthetized with pentobarbital and 5 ml of autologous blood was injected into cisterna magna (on the first day). On the third day, 5 ml of autologous blood was injected into cisterna magna under thiamyral anesthesia. Before the injection of autologous blood on the first day and on the seventh day, angiographin was injected into vertebral artery, followed by photographing blood vessel of basilar artery. […] As a control, physiological saline was administered into vein over 30 minutes continuously. After the administration of each drug, the blood vessel was photographed to measure the diameter of basilar artery.

[2] = system: Vasopressin Induced Rat Angina Pectoris Model; settings: half an hour before vasopressin 0.5 U/kg i.v., separate administration
Method: Half an hour later, vasopressin (0.5 U/kg) was intravenously administered. The ST segment depression was used as an index showing the degree of a myocardial ischemia. […] ST segment in an electrocardiogram was measured for comparison with a ST segment before the vasopressin administration. […] In addition, occurrence of a myocardial ischemia was observed.

[3] = system: Rat Cerebral Infarction Model; assay: Inhibitory effect of cerebral infarction in rat cerebral infarction model (brain microthromboembolism); settings: 10 mg/kg intraperitoneally once a day until the fourth day, separate administration
Method: A rat brain microthromboembolism model described in Stroke, 31, 2245-2255 (2000) was used as a cerebral infarction model. […] After the model was prepared, each drug was administered once a day until the fourth day. On the fifth day, the brain was extracted and the size of a cerebral infarction was histopathologically measured.

For COCCOC(=O)C1=C(C)NC(C)=C(C(=O)OC(C)C)C1c1cccc([N+](=O)[O-])c1 (centres unmarked) [Nimodipine, nimodipine], the “Basilar artery diameter (diameter before blood injection: 100%)” value ([1]; 0.1 mg/kg into vein over 30 minutes) was 55.7% and the “Basilar artery diameter (diameter before blood injection: 100%)” value ([1]; 1 mg/kg into vein over 30 minutes) was 58.0%.

For CC(C)NCC(O)COc1cccc2ccccc12 (centres unmarked) [propranolol], the “improvement of ST segment depression (index of myocardial ischemia)” value ([2]; propranolol 100 mg/kg orally) was “not improved”.

For O=C([O-])/C=C/c1ccc(Cn2ccnc2)cc1.[Na+] [sodium ozagrel], the “inhibition of cerebral infarction (size measured histopathologically, fifth day)” value [3] was “not inhibited”.

In the case of isosorbide nitrate, the “improvement of ST segment depression (index of myocardial ischemia)” value ([2]; isosorbide nitrate 30 mg/kg orally) is reported as “not improved”.
